Assay results from paper PMC5861040, “Identification of di-substituted ureas that prevent growth of trypanosomes through inhibition of translation initiation” (Scientific Reports, 2018).
“Also recorded” adds a separate entry of the source.

What was measured:
[1] = system: heme regulated kinase; set-up: method as in PMID 21765405; conditions: cited from earlier work
[2] = system: T. cruzi epimastigotes; test: Alamar Blue viability assay of T. cruzi epimastigotes; assay type: cell-based, Trypanosoma cruzi (Y strain); conditions: Trypanosoma cruzi, 72 h, epimastigotes incubated 3 days with compound; for EC50: concentration inhibiting 50% of multiplication; for EC90: concentration inhibiting 90% of multiplication
Protocol: T. cruzi epimastigotes were incubated in culture medium for three days with 25 different compounds at 10 µM.
T. cruzi epimastigotes at 1 × 10^7/mL in 50 µL were incubated in 96-wells plates with the same volume of compounds pre-diluted in 50 µL of LIT medium for 48 hours at 28 °C. LLC-MK2 cells (3 × 10^3) in 100 µL of medium were added to 96 well plates. After 5 hours, the medium was replaced by fresh medium containing serial dilutions of test compounds and incubations proceeded for 72 hours at 37 °C. In both cases, 10 µL of AlamarBlue (Thermo Fisher Scientific) was added and the plates were further incubated for 18 hours at 28 °C for epimastigotes and 4 hours at 37 °C for mammalian cells. Absorbance at 570 nm and 600 nm were measured by using a SpectraMax M3 (Molecular Devices). The differences between absorbance at 570 nm and 600 nm for each well was normalized against a blank value for medium without parasites and lysed cells. Alternatively, L6 rat myoblast cell death and lysis were determined using the cytotoxicity Detection Kit Plus LDH Version 6 (Roche) after 72 hours incubation with the indicated compounds using the manufacturer protocol. […] Each compound was tested in triplicates in at least two independent experiments, with exceptions appointed on Table 1. Selective index was estimated by the ratio between LLC-MK2 EC50 and epimastigotes EC50 on Table 1.

[3] = system: T. cruzi epimastigotes; test: T. cruzi epimastigote multiplication in culture (parasite counting); assay type: cell-based, Trypanosoma cruzi (Y strain)
[4] = system: T. brucei procyclic form (PCF); test: T. brucei procyclic form multiplication (parasite counting); assay type: cell-based, Trypanosoma brucei; conditions: 48 hours at 28 °C, Fig. 1B
[5] = system: mammalian eIF2α kinases; set-up: method as in PMID 21765405, PMID 28590739; conditions: cited from earlier work

O=C(Nc1ccc(Cl)c(Cl)c1)Nc1ccc2nnsc2c1 [BTdCPU, 1-(benzo [d][1,2,3]thiadiazol-6-yl)-3-(3,4-dichlorophenyl) urea]
activity on heme regulated kinase leading to eIF2α phosphorylation [1]: activator

O=C(Cn1ccnc1[N+](=O)[O-])NCc1ccccc1 [BZN, Benznidazole]
EC50 [2]: 211 ± 3 µM
EC90 [2]: 960 ± 25 µM

O=C(Nc1ccc(Cl)c(Cl)c1)Nc1cc([N+](=O)[O-])ccc1Cl [NCPdCPU, 1-(2-chloro-5-nitrophenyl)-3-(3,4-dichlorophenyl) urea]
activity on heme regulated kinase leading to eIF2α phosphorylation [1]: inactive
EC50 [2]: > 10 µM
EC90 [2]: > 10 µM
effect on T. cruzi epimastigote multiplication at 10 µM ([3]; 10 µM, three days in culture medium): unable to produce any visible effect; also recorded: no activity
inhibition of epimastigote multiplication (counting) ([3]; all tested concentrations, 48 hours, Fig. 1A): minimal inhibition
multiplication of T. brucei PCF [4]: not
activation of mammalian eIF2α kinases [5]: failed to activate
